Test results reported in US20250326771A1, “PIPERAZINE DERIVATIVES USEFUL IN HIV THERAPY” (VIIV HEALTHCARE COMPANY, priority 2022, published 2025).

Columns and labels:
cIAP1-BIR3 = cIAP1-BIR3 (Homo sapiens (Human), UniProt Q13490); assay: BIR binding assay (FRET competition), cIAP1 BIR3; conditions: for cIAP1 BIR3 vs BIR2 separation window: fold separation (FS) for cIAP1
Summary of the method: (§1)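 615/665 nm FRET ratio. Compound, His-domain and 200 nM AF647-SMAC peptide incubated 60 min, then 2 nM Eu-W1024 for 30 min. Domains: cIAP1-BIR3 50 nM; XIAP-BIR3 100 nM; cIAP1-BIR2, cIAP2-BIR2 325 nM each. 15-pt 3-fold series; variable-slope IC50.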

cIAP2-BIR3 = cIAP2-BIR3 (Homo sapiens (Human), UniProt Q13489); assay: BIR binding assay (FRET competition), cIAP2 BIR3; conditions: for cIAP2 BIR3 vs BIR2 separation window: fold separation (FS) for cIAP2
XIAP-BIR3 = XIAP-BIR3 (Homo sapiens (Human), UniProt P98170); assay: BIR binding assay (FRET competition), XIAP BIR3
Summary of the method: as §1

cIAP1-BIR2 = cIAP1-BIR2 (Homo sapiens (Human), UniProt Q13490); assay: BIR binding assay (FRET competition), cIAP1 BIR2
Method: (§2) The BIR domain binding assays are FRET based competition assays that utilize His-tagged versions of each of the BIR2 and BIR3 domains from cIAP1, cIAP2, and XIAP (each domain assayed separately) each at a custom optimal concentration and a probe, 200 nM SMAC/DIABLO peptide […] labelled with AlexaFluor647 (part #crb 1110326h, Discovery Peptides). The assay is conducted in 50 mM HEPES, […], 1 mM CHAPS, 5% Glycerol, 1 mM DTT, in dI water with a final pH of 7.4 and final volume of 20 uL. Final protein domain concentrations are: 50 nM cIAP1-BIR3 (Part #APT-11-370 Reaction Biology), 100 nM XIAP-BIR3 (Part #APT-11-351 Reaction Biology), 200 nM XIAP-BIR2 (Part #APT-11-470 Reaction Biology), 325 nM cIAP2-BIR2 (Part #APT-11-489 Reaction Biology), 50 nM cIAP2-BIR3 (Part #APT-11-372 Reaction Biology), 325 nM cIAP1-BIR2 (Part #APT-11-487 Reaction Biology). Compounds were plated using a HP Tecan D300 printer in a final total volume of 202 nl and DMSO concentration normalized across the 15-point, 3-fold dilution series. Peptide and probe were prepared at 2× relative to the concentrations above in binding buffer, 10 uL added to the prepared compound plates, and incubated for 60 minutes. LANCE Eu-W1024 (part #AD0401 Perkin Elmer #, vendor) was prepared at 2× concentration in binding buffer for final concentration of 2 nM, 10 uL added to each well, and plates incubated for 30 minutes. Plates were read on an ENVISION multifunction plate reader with […] laser excitation to obtain the 615 nm/665 nm emission ratio as indicative of probe:protein proximity. Data was analyzed using GraphPad PRISM and curves fit using log(inhibitor) vs. response—Variable slope (four […] method to obtain IC50 and pIC50 values.

cIAP2-BIR2 = cIAP2-BIR2 (Homo sapiens (Human), UniProt Q13489); assay: BIR binding assay (FRET competition), cIAP2 BIR2
Method: as §2

[1] = system: Jurkat HIV-luciferase clones; assay: Jurkat latency reversal assay; type: cell-based; conditions: Homo sapiens, 48 h; Jurkat latency reversal assay potency; read-out: Jurkat pEC50 (converted)
Summary of the method: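 Three pooled Jurkat reporter clones, each with one or two integrated HIV-luciferase proviruses, 5,000 cells/well; duplicate 14-point titrations starting at 10 μM; 48 h, 37° C, then Steady-Glo luminescence; four-parameter logistic analysis yields EC50 and percent maximal activation against DMSO vehicle.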

Chain of XIAP-BIR3 (P98170 241-356): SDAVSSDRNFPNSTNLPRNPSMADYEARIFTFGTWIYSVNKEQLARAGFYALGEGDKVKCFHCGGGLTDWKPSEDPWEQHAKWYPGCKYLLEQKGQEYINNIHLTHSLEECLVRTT
Chain of cIAP1-BIR2 (Q13490 173-257): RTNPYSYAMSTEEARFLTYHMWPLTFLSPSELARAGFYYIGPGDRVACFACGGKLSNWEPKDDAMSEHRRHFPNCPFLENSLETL
Chain of cIAP2-BIR3 (Q13489 238-349): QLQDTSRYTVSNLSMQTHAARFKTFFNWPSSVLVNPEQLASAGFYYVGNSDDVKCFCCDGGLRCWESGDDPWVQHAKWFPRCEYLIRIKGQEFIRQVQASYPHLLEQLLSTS
Chain of cIAP2-BIR2 (Q13489 158-242): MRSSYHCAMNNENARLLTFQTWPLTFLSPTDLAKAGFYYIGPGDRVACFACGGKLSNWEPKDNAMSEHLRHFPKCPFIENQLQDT
Chain of cIAP1-BIR3 (Q13490 253-363): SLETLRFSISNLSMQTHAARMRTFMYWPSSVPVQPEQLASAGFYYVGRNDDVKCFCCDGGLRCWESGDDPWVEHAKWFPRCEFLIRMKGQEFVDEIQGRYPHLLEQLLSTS

SMILES | IC50 (cIAP1-BIR3) [nM] | cIAP1 BIR3 vs BIR2 separation window (cIAP1-BIR3) | IC50 (cIAP2-BIR3) [nM] | cIAP2 BIR3 vs BIR2 separation window (cIAP2-BIR3) | IC50 (XIAP-BIR3) [nM] | IC50 (cIAP1-BIR2) [nM] | IC50 (cIAP2-BIR2) [nM] | EC50 [1] [nM] | cIAP1 BIR3 (pIC50) (cIAP1-BIR3; FRET competition) | cIAP2 BIR3 (pIC50) (cIAP2-BIR3; FRET competition) | XIAP BIR3 (pIC50) (XIAP-BIR3; FRET competition) | cIAP1 BIR2 (pIC50) (cIAP1-BIR2; FRET competition) | cIAP2 BIR2 (pIC50) (cIAP2-BIR2; FRET competition)
C[C@@H]1CN(CC(=O)N2CC(C)(C)c3[nH]c(=O)c(Cc4ccc(Cl)cc4C#N)cc32)[C@@H](CN2CCO[C@H](C(=O)NCc3ccc(CNC(=O)[C@@H]4CN(C[C@H]5CN[C@H](C)CN5CC(=O)N5CC(C)(C)c6[nH]c(=O)c(Cc7ccc(Cl)cc7C#N)cc65)CCO4)cc3)C2)CN1 [Compound 171, (2S,2′S)-N,N′-(1,4-phenylenebis(methylene)) bis(4-(((2R,5R)-1-(2-(6-(4-chloro-2-cyanobenzyl)-3,3-dimethyl-5-oxo-2,3,4,5-tetrahydro-1H-pyrrolo[3,2-b]pyridin-1-yl)-2-oxoethyl)-5-methylpiperazin-2-yl)methyl)morpholine-2-carboxamide)] | 1.38 to 7.94 | ++ (1,000>FS>100) | 1.38 to 7.94 | ++ (1,000>FS>100) | 31.6 to 501 | 22.4 to 1000 | 22.4 to 1000 | 12.6 to 63.1 | – | – | – | – | –
CC(C)c1ccccc1Cc1cc2c([nH]c1=O)C(C)(C)CN2C(=O)CN1C[C@@H](C)NC[C@@H]1CN1CCO[C@H](C(=O)NCc2ccc(CNC(=O)[C@@H]3CN(C[C@H]4CN[C@H](C)CN4CC(=O)N4CC(C)(C)c5[nH]c(=O)c(Cc6ccccc6C(C)C)cc54)CCO3)cc2)C1 [Compound 173, (2S,2′S)-N,N′-(1,4-phenylenebis(methylene)) bis(4-(((2R,5R)-1-(2-(6-(2-isopropylbenzyl)-3,3-dimethyl-5-oxo-2,3,4,5-tetrahydro-1H-pyrrolo[3,2-b]pyridin-1-yl)-2-oxoethyl)-5-methylpiperazin-2-yl)methyl)morpholine-2-carboxamide)] | 31.6 to 501 | +++ (10,000>FS>1,000) | 15.8 to 31.6 | +++ (10,000>FS>1,000) | 31.6 to 501 | 10000 to 51300 | 3160 to 10000 | 63.1 to 316 | – | – | – | – | –
C[C@@H]1CN(CC(=O)N2CC(C)(C)c3[nH]c(=O)c(Cc4cc(F)c(F)c(F)c4F)cc32)[C@@H](CN2CCO[C@H](C(=O)NCc3ccc(CNC(=O)[C@@H]4CN(C[C@H]5CN[C@H](C)CN5CC(=O)N5CC(C)(C)c6[nH]c(=O)c(Cc7cc(F)c(F)c(F)c7F)cc65)CCO4)cc3)C2)CN1 [Compound 174, (2S,2′S)-N,N′-(1,4-phenylenebis(methylene)) bis(4-(((2R,5R)-1-(2-(3,3-dimethyl-5-oxo-6-(2,3,4,5-tetrafluorobenzyl)-2,3,4,5-tetrahydro-1H-pyrrolo[3,2-b]pyridin-1-yl)-2-oxoethyl)-5-methylpiperazin-2-yl)methyl)morpholine-2-carboxamide)] | – | +++ (10,000>FS>1,000) | – | +++ (10,000>FS>1,000) | – | – | – | 0.49 to 12.6 | +++ (8.10>pIC50>=7.80) | +++ (8.10>pIC50>=7.80) | ++ (7.80>pIC50>=7.50) | ++ (5.00<pIC50<=5.50) | ++ (5.00<pIC50<=5.50)
C[C@@H]1CN(CC(=O)N2CC(C)(C)c3[nH]c(=O)c(Cc4c(F)c(F)c(F)c(F)c4F)cc32)[C@@H](CN2CCO[C@H](C(=O)NCc3ccc(CNC(=O)[C@@H]4CN(C[C@H]5CN[C@H](C)CN5CC(=O)N5CC(C)(C)c6[nH]c(=O)c(Cc7c(F)c(F)c(F)c(F)c7F)cc65)CCO4)cc3)C2)CN1 [Compound 176, (2S,2′S)-N,N′-(1,4-phenylenebis(methylene)) bis(4-(((2R,5R)-1-(2-(3,3-dimethyl-5-oxo-6-((perfluorophenyl)methyl)-2,3,4,5-tetrahydro-1H-pyrrolo[3,2-b]pyridin-1-yl)-2-oxoethyl)-5-methylpiperazin-2-yl)methyl)morpholine-2-carboxamide)] | 31.6 to 501 | ++ (1,000>FS>100) | 15.8 to 31.6 | +++ (10,000>FS>1,000) | 31.6 to 501 | 3160 to 10000 | 3160 to 10000 | 0.49 to 12.6 | – | – | – | – | –
C[C@@H]1CN(CC(=O)N2CC(C)(C)c3[nH]c(=O)c(Cc4ccc(F)c(F)c4F)cc32)[C@@H](CN2CCO[C@H](C(=O)NCc3ccc(CNC(=O)[C@@H]4CN(C[C@H]5CN[C@H](C)CN5CC(=O)N5CC(C)(C)c6[nH]c(=O)c(Cc7ccc(F)c(F)c7F)cc65)CCO4)cc3)C2)CN1 [Compound 178, (2S,2′S)-N,N′-(1,4-phenylenebis(methylene)) bis(4-(((2R,5R)-1-(2-(3,3-dimethyl-5-oxo-6-(2,3,4-trifluorobenzyl)-2,3,4,5-tetrahydro-1H-pyrrolo[3,2-b]pyridin-1-yl)-2-oxoethyl)-5-methylpiperazin-2-yl)methyl)morpholine-2-carboxamide)] | 15.8 to 31.6 | +++ (10,000>FS>1,000) | 7.94 to 15.8 | +++ (10,000>FS>1,000) | 15.8 to 31.6 | 1000 to 3160 | 1000 to 3160 | 0.49 to 12.6 | – | – | – | – | –
C[C@@H]1CN(CC(=O)N2CC(C)(C)c3[nH]c(=O)c(Cc4c(Cl)cc(Cl)cc4Cl)cc32)[C@@H](CN2CCO[C@H](C(=O)NCc3ccc(CNC(=O)[C@@H]4CN(C[C@H]5CN[C@H](C)CN5CC(=O)N5CC(C)(C)c6[nH]c(=O)c(Cc7c(Cl)cc(Cl)cc7Cl)cc65)CCO4)cc3)C2)CN1 [Compound 180, (2S,2′S)-N,N′-(1,4-phenylenebis(methylene)) bis(4-(((2R,5R)-1-(2-(3,3-dimethyl-5-oxo-6-(2,4,6-trichlorobenzyl)-2,3,4,5-tetrahydro-1H-pyrrolo[3,2-b]pyridin-1-yl)-2-oxoethyl)-5-methylpiperazin-2-yl)methyl)morpholine-2-carboxamide)] | 31.6 to 501 | ++ (1,000>FS>100) | 31.6 to 501 | ++ (1,000>FS>100) | 31.6 to 501 | 10000 to 51300 | 10000 to 51300 | 63.1 to 316 | – | – | – | – | –
C[C@@H]1CN(CC(=O)N2CC(C)(C)c3[nH]c(=O)c(Cc4c(F)cc(F)cc4F)cc32)[C@@H](CN2CCO[C@H](COc3cccc(OC[C@@H]4CN(C[C@H]5CN[C@H](C)CN5CC(=O)N5CC(C)(C)c6[nH]c(=O)c(Cc7c(F)cc(F)cc7F)cc65)CCO4)c3)C2)CN1 [Compound 188] | 15.8 to 31.6 | +++ (10,000>FS>1,000) | 15.8 to 31.6 | ++ (1,000>FS>100) | 15.8 to 31.6 | 1000 to 3160 | 1000 to 3160 | 0.49 to 12.6 | – | – | – | – | –
C[C@@H]1CN(CC(=O)N2CC(C)(C)c3[nH]c(=O)c(Cc4ccc(Cl)cc4C#N)cc32)[C@@H](CN2CCO[C@H](COc3cccc(OC[C@@H]4CN(C[C@H]5CN[C@H](C)CN5CC(=O)N5CC(C)(C)c6[nH]c(=O)c(Cc7ccc(Cl)cc7C#N)cc65)CCO4)c3)C2)CN1 [Compound 189] | 15.8 to 31.6 | +++ (10,000>FS>1,000) | 15.8 to 31.6 | +++ (10,000>FS>1,000) | 31.6 to 501 | 1000 to 3160 | 3160 to 10000 | 0.49 to 12.6 | – | – | – | – | –
C[C@@H]1CN(CC(=O)N2CC(C)(C)c3[nH]c(=O)c(Cc4ccc(F)cc4)cc32)[C@@H](CN2CCN(C(=O)COc3ccc(OCC(=O)N4CCN(C[C@H]5CN[C@H](C)CN5CC(=O)N5CC(C)(C)c6[nH]c(=O)c(Cc7ccc(F)cc7)cc65)[C@H](C)C4)cc3)C[C@H]2C)CN1 [Example 13, 1,1′-(2,2′-((3R,3′R,6R,6′R)-(((2R,2′R)-(2,2′-(1,4-phenylenebis(oxy))bis(acetyl))bis(2-methylpiperazine-4,1-diyl))bis(methylene))bis(3-methylpiperazine-6,1-diyl))bis(acetyl))bis(6-(4-fluorobenzyl)-3,3-dimethyl-1,2,3,4-tetrahydro-5H-pyrrolo[3,2-b]pyridin-5-one)] | 15.8 to 31.6 | – | 15.8 to 31.6 | – | 15.8 to 31.6 | 22.4 to 1000 | 1000 to 3160 | 63.1 to 316 | – | – | – | – | –
